# Laboratory results reported in ChEMBL document CHEMBL4261534, “Synthesis, α-glucosidase inhibition and molecular docking studies of novel thiazolidine-2,4-dione or rhodanine derivatives” (Medchemcomm, 2017).
# Molecular target: alpha-glucosidase (Saccharomyces cerevisiae)
# Assay: Inhibition of alpha-glucosidase (unknown origin) using p-nitrophenyl alpha-D-glucopyranoside as substrate preincubated for 15 mins followed by substrate addition measured after 30 mins by spectrophotometric method
row,SMILES,IC50 [µM]
1,COc1cc(/C=C2\SC(=O)NC2=O)ccc1OCN1C(=O)c2ccccc2C1=O,35.14
2,O=C1NC(=O)/C(=C/c2ccc(OCN3C(=O)c4ccccc4C3=O)c([N+](=O)[O-])c2)S1,22.48
3,O=C1NC(=O)/C(=C/c2ccccc2OCN2C(=O)c3ccccc3C2=O)S1,> 100
4,CCOc1cc(/C=C2\SC(=S)NC2=O)ccc1OCN1C(=O)c2ccccc2C1=O,7.72
5,COc1cc(/C=C2\SC(=S)NC2=O)cc(OC)c1OCN1C(=O)c2ccccc2C1=O,39.81
6,O=C1NC(=O)/C(=C/c2ccc(OCN3C(=O)c4ccccc4C3=O)cc2)S1,25.6
7,COc1cc(/C=C2\SC(=O)NC2=O)cc(OC)c1OCN1C(=O)c2ccccc2C1=O,> 100
8,O=C1NC(=O)/C(=C/c2cccc(OCN3C(=O)c4ccccc4C3=O)c2)S1,> 100
9,CCOc1cc(/C=C2\SC(=O)NC2=O)ccc1OCN1C(=O)c2ccccc2C1=O,29.26
10,O=C1NC(=S)S/C1=C\c1cccc(OCN2C(=O)c3ccccc3C2=O)c1,33.98
11,O=C1NC(=O)/C(=C/c2ccc(OCN3C(=O)c4ccccc4C3=O)c(Cl)c2)S1,20.95
12,O=C1NC(=S)S/C1=C\c1ccc(OCN2C(=O)c3ccccc3C2=O)cc1,7.91
13,COc1cccc(/C=C2\SC(=S)NC2=O)c1OCN1C(=O)c2ccccc2C1=O,> 100
14,COc1cccc(/C=C2\SC(=O)NC2=O)c1OCN1C(=O)c2ccccc2C1=O,> 100

# Second part, the compound after the results:
row,IC50 [µM],SMILES
1,50.45,O=C1NC(=O)/C(=C/c2cc([N+](=O)[O-])ccc2OCN2C(=O)c3ccccc3C2=O)S1
2,35.79,O=C1NC(=S)S/C1=C\c1cc([N+](=O)[O-])ccc1OCN1C(=O)c2ccccc2C1=O
3,16.11,COc1cc(/C=C2\SC(=S)NC2=O)ccc1OCN1C(=O)c2ccccc2C1=O
4,> 100,O=C1NC(=S)S/C1=C\c1ccccc1OCN1C(=O)c2ccccc2C1=O
5,34.82,O=C1NC(=S)S/C1=C\c1cc(Cl)ccc1OCN1C(=O)c2ccccc2C1=O
6,> 100,O=C1NC(=O)/C(=C/c2cc(Cl)ccc2OCN2C(=O)c3ccccc3C2=O)S1
7,5.44,O=C1NC(=S)S/C1=C\c1ccc(OCN2C(=O)c3ccccc3C2=O)c(Cl)c1
8,6.59,O=C1NC(=S)S/C1=C\c1ccc(OCN2C(=O)c3ccccc3C2=O)c([N+](=O)[O-])c1
